In patent publication US7468375B2 (Pfizer Inc., priority 2004, dated 2008):
Like-named read-outs stand apart in the source and are kept apart here.

Columns and labels:
[1] = tested on: RF strain of HIV-1 in CEM-SS cells; assay: HIV-1 cell protection assay (XTT dye reduction); assay type: cell-based; conditions: HIV-1 RF, CEM-SS cells, XTT dye reduction, six days, read-out: EC50
Method in brief: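 CEM-SS cells infected with HIV-1 RF (moi 0.025–0.819) or mock-infected, 2×10^4 cells/well with half-log compound dilutions for six days. Viability by XTT/PMS reduction (4 h), absorbance 450 nm, as % of uninfected untreated cells. Therapeutic index = CC50/EC50.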

[2] = biological target: T1, Full-length wild type HIV-1 integrase (SF1) (Human immunodeficiency virus type 1 group M subtype B, UniProt P04585); assay: Integrase strand-transfer scintillation proximity assay; assay type: biochemical; conditions: strand transfer, 50 min at 37° C., 246 nM integrase, 50 nM host DNA; read-out: IC50
T1 construct: made in house; host or cells: E. coli BL21 (DE3)
Method in brief: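 Recombinant full-length wild-type HIV-1 integrase (aa 1-288), E. coli-expressed, tested on biotinylated pre-processed U5 LTR viral ds-DNA with CA overhang bound to streptavidin SPA beads. [3H]-thymidine-labelled host ds-DNA serves as target; strand transfer read by scintillation proximity. A 3′ di-deoxy viral DNA control checks non-specific binding.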

[3] = Human immunodeficiency virus 1, CEM-SS, 144 h

SMILES	EC50 [1, 3] [nM]	IC50 [2] [nM]	EC50 [1] [nM]
CCCN(Cc1cn(Cc2ccc(F)cc2F)c2cnc(C(=O)NO)cc12)CC1CC1 [Example 73, 3-{[(Cyclopropylmethyl)(propyl)amino]methyl}-1-(2,4-difluorobenzyl)-N-hydroxy-1H-pyrrolo[2,3-c]pyridine-5-carboxamide]	35	658	–
O=C(NO)c1cc2c(CN[C@@H]3C[C@H]4CC[C@@H]3C4)cn(Cc3ccc(F)cc3F)c2cn1 [Example 74, 3-{[(1R,2R,4S)-Bicyclo[2.2.1]hept-2-ylamino]methyl}-1-(2,4-difluorobenzyl)-N-hydroxy-1H-pyrrolo[2,3-c]pyridine-5-carboxamide]	32	357	–
C[C@@H](NCc1cn(Cc2ccc(F)cc2F)c2cnc(C(=O)NO)cc12)C1CCCCC1 [Example 76, 3-({[(1R)-1-Cyclohexylethyl]amino}methyl)-1-(2,4-difluorobenzyl)-N-hydroxy-1H-pyrrolo[2,3-c]pyridine-5-carboxamide]	91	402	–
O=C(NO)c1cc2c(CN[C@H](CO)Cc3c[nH]c4ccccc34)cn(Cc3ccc(F)cc3F)c2cn1 [Example 77, 1-(2,4-Difluorobenzyl)-N-hydroxy-3-({[(1S)-2-hydroxy-1-(1H-indol-3-ylmethyl)ethyl]amino}methyl)-1H-pyrrolo[2,3-c]pyridine-5-carboxamide]	360	483	–
CC(C)C(CO)NCc1cn(Cc2ccc(F)cc2F)c2cnc(C(=O)NO)cc12 (centres unmarked) [Example 78, 1-(2,4-Difluorobenzyl)-N-hydroxy-3-({[1-(hydroxymethyl)-2-methylpropyl]amino}methyl)-1H-pyrrolo[2,3-c]pyridine-5-carboxamide]	83	571	–
Cc1cccc(CNCc2cn(Cc3ccc(F)cc3F)c3cnc(C(=O)NO)cc23)c1 [Example 79, 1-(2,4-Difluorobenzyl)-N-hydroxy-3-{[(3-methylbenzyl)amino]methyl}-1H-pyrrolo[2,3-c]pyridine-5-carboxamide]	20	243	–
O=C(NO)c1cc2c(CNCCO)cn(Cc3ccc(F)cc3F)c2cn1 [Example 80, 1-(2,4-Difluorobenzyl)-N-hydroxy-3-{[(2-hydroxyethyl)amino]methyl}-1H-pyrrolo[2,3-c]pyridine-5-carboxamide]	–	530	10
CC1CCCN1Cc1cn(Cc2ccc(F)cc2F)c2cnc(C(=O)NO)cc12 (centres unmarked) [Example 81, 1-(2,4-Difluorobenzyl)-N-hydroxy-3-[(2-methylpyrrolidin-1-yl)methyl]-1H-pyrrolo[2,3-c]pyridine-5-carboxamide]	40	499	–
CCC(CC)NCc1cn(Cc2ccc(F)cc2F)c2cnc(C(=O)NO)cc12 [Example 82, 1-(2,4-Difluorobenzyl)-3-{[(1-ethylpropyl)amino]methyl}-N-hydroxy-1H-pyrrolo[2,3-c]pyridine-5-carboxamide]	23	634	–
CC(C)OCCCNCc1cn(Cc2ccc(F)cc2F)c2cnc(C(=O)NO)cc12 [Example 83, 1-(2,4-Difluorobenzyl)-N-hydroxy-3-H{[(3-isopropoxypropyl)amino]methyl}-1H-pyrrolo[2,3-c]pyridine-5-carboxamide]	60	952	–
O=C(NO)c1cc2c(CNCC(O)c3ccccc3)cn(Cc3ccc(F)cc3F)c2cn1 (centres unmarked) [Example 84, 1-(2,4-Difluorobenzyl)-N-hydroxy-3-{[(2-hydroxy-2-phenylethyl)amino]methyl}-1H-pyrrolo[2,3-c]pyridine-5-carboxamide]	51	316	–
O=C(NO)c1cc2c(CNCCc3ccc(F)cc3)cn(Cc3ccc(F)cc3F)c2cn1 [Example 85, 1-(2,4-Difluorobenzyl)-3-(J[2-(4-fluorophenyl)ethyl]aminomethyl)-N-hydroxy-1H-pyrrolo[2,3-c]pyridine-5-carboxamide]	33	224	–
CC(C)(C)[C@@H](CO)NCc1cn(Cc2ccc(F)cc2F)c2cnc(C(=O)NO)cc12 [Example 87, 1-(2,4-Difluorobenzyl)-N-hydroxy-3-({[(1S)-1-(hydroxymethyl)-2,2-dimethylpropyl]amino}methyl)-1H-pyrrolo[2,3-c]pyridine-5-carboxamide]	67	814	–
O=C(NO)c1cc2c(CNCc3ccc(C(F)(F)F)nc3)cn(Cc3ccc(F)cc3F)c2cn1 [Example 88, 1-(2,4-Difluorobenzyl)-N-hydroxy-3-[({[6-(trifluoromethyl)pyridin-3-yl]methyl}amino)methyl]-1H-pyrrolo[2,3-c]pyridine-5-carboxamide]	16	238	–
CN1CCC(NCc2cn(Cc3ccc(F)cc3F)c3cnc(C(=O)NO)cc23)CC1 [Example 89, 1-(2,4-Difluorobenzyl)-N-hydroxy-3-{[(1-methylpiperidin-4-yl)amino]methyl}-1H-pyrrolo[2,3-c]pyridine-5-carboxamide]	52	708	–
COc1ncccc1NCc1cn(Cc2ccc(F)cc2F)c2cnc(C(=O)NO)cc12 [Example 90, 1-(2,4-Difluorobenzyl)-N-hydroxy-3—[(2-methoxypyridin-3-yl)amino-methyl]-1H-pyrrolo[2,3-c]pyridine-5-carboxamide]	18	212	–
O=C(NO)c1cc2c(CNC3CCOCC3)cn(Cc3ccc(F)cc3F)c2cn1 [Example 91, 1-(2,4-Difluorobenzyl)-N-hydroxy-3-[(tetrahydro-2H-pyran-4-ylamino)methyl]-1H-pyrrolo[2,3-c]pyridine-5-carboxamide]	28	519	–
O=C(NO)c1cc2c(CNCC34CCCN3CCC4)cn(Cc3ccc(F)cc3F)c2cn1 [Example 92, 1-(2,4-Difluorobenzyl)-N-hydroxy-3-{[(tetrahydro-1H-pyrrolizin-7a(5H)-ylmethyl)amino]methyl}-1H-pyrrolo[2,3-c]pyridine-5-carboxamide]	70	425	–
CN(Cc1cnn(-c2ccccc2)c1)Cc1cn(Cc2ccc(F)cc2F)c2cnc(C(=O)NO)cc12 [Example 93, 1-(2,4-Difluorobenzyl)-N-hydroxy-3-({methyl[(1-phenyl-1H-pyrazol-4-yl)methyl]amino}methyl)-1H-pyrrolo[2,3-c]pyridine-5-carboxamide]	71	187	–
O=C(NO)c1cc2c(CNCc3ccc(OC(F)F)cc3)cn(Cc3ccc(F)cc3F)c2cn1 [Example 94, 1-(2,4-Difluorobenzyl)-3-({[4-(difluoromethoxy)benzyl]amino}methyl)-N-hydroxy-1H-pyrrolo[2,3-c]pyridine-5-carboxamide]	26	288	–
CN(CCS(C)(=O)=O)Cc1cn(Cc2ccc(F)cc2F)c2cnc(C(=O)NO)cc12 [Example 95, 1-(2,4-difluorobenzyl)-N-hydroxy-3-({methyl[2-(methylsulfonyl)ethyl]amino}methyl)-1H-pyrrolo[2,3-c]pyridine-5-carboxamide]	17	127	–
O=C(NO)c1cc2c(CNCCC3CCOCC3)cn(Cc3ccc(F)cc3F)c2cn1 [Example 96, 1-(2,4-Difluorobenzyl)-N-hydroxy-3-({[2-(tetrahydro-2H-pyran-4-yl)ethyl]amino}methyl)-1H-pyrrolo[2,3-c]pyridine-5-carboxamide]	30	511	–
Cc1ccc2c(c1)C(NCc1cn(Cc3ccc(F)cc3F)c3cnc(C(=O)NO)cc13)CCO2 (centres unmarked) [Example 98, 1-(2,4-difluorobenzyl)-N-hydroxy-3-{[(6-methyl-3,4-dihydro-2H-chromen-4-yl)amino]methyl}-1H-pyrrolo[2,3-c]pyridine-5-carboxamide]	100	256	–
O=C(NO)c1cc2c(CNCc3n[nH]c4c3CCC4)cn(Cc3ccc(F)cc3F)c2cn1 [Example 99, 1-(2,4-Difluorobenzyl)-N-hydroxy-3-{[(1,4,5,6-tetrahydrocyclopenta[c]pyrazol-3-ylmethyl)amino]methyl}-1H-pyrrolo[2,3-c]pyridine-5-carboxamide]	31	277	–
Cc1nnc(CCNCc2cn(Cc3ccc(F)cc3F)c3cnc(C(=O)NO)cc23)[nH]1 [Example 100, 1-(2,4-Difluorobenzyl)-N-hydroxy-3-({[2-(5-methyl-4H-1,2,4-triazol-3-yl)ethyl]amino}methyl)-1H-pyrrolo[2,3-c]pyridine-5-carboxamide]	10000	270	–
O=C(CC(NCc1cn(Cc2ccc(F)cc2F)c2cnc(C(=O)NO)cc12)C1CC1)NC1CC1 (centres unmarked) [Example 101, 3-({[1-Cyclopropyl-3-(cyclopropylamino)-3-oxopropyl]amino}methyl)-1-(2,4-difluorobenzyl)-N-hydroxy-1H-pyrrolo[2,3-c]pyridine-5-carboxamide]	73	472	–
O=C1CN(Cc2cn(Cc3ccc(F)cc3)c3cnc(C(=O)NOCc4ccccc4)cc23)CCN1 [Example 102, N-(Benzyloxy)-1-(4-fluorobenzyl)-3-[(3-oxopiperazin-1-yl)methyl]-1H-pyrrolo[2,3-c]pyridine-5-carboxamide]	33	810	–
C=CCONC(=O)c1cc2c(CN3CCNC(=O)C3)cn(Cc3ccc(F)cc3)c2cn1 [Example 103, N-(Allyloxy)-1-(4-fluorobenzyl)-3-[(3-oxopiperazin-1-yl)methyl]-1H-pyrrolo[2,3-c]pyridine-5-carboxamide]	130	702	–
